Source: patent publication US8952024B2, “Herbicidal pyrimidone derivatives” (E I du Pont de Nemours and Company, priority 2009, dated 2015)

Key:
Test in all cases: Test B pre-/postemergence plant response
Assay type in all cases: in vivo
[1] = test system: soybean (Glycine max); details: for Soybean plant response rating (0 to 100 scale): 62 g ai/ha, postemergence, 0 is no effect, 100 is complete control, 13 to 15 days; for Plant response rating, Soybean: Postemergence, scale 0 to 100 (0 no effect, 100 complete control)
Summary of the method: (§1)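 Steps: sow seed in loam–sand soil and spray preemergence, or grow plants in peat-based medium to 1–4 leaves (2–18 cm) and spray postemergence; formulation is non-phytotoxic solvent plus surfactant; hold in greenhouse 13–15 days; score visually vs controls, 0 = no effect, 100 = complete control.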

[2] = test system: wild oat (Avena fatua); details: for Oat, Wild plant response rating (0 to 100 scale): 62 g ai/ha, 0 is no effect, 13 to 15 days
Summary of the method: as §1

[3] = test system: Surinam grass (Brachiaria decumbens); details: for Surinam Grass plant response rating (0 to 100 scale): 62 g ai/ha, postemergence, 0 is no effect, 100 is complete control, 13 to 15 days; for Plant response rating, Surinam Grass: Postemergence, scale 0 to 100 (0 no effect, 100 complete control)
Summary of the method: as §1

[4] = test system: velvetleaf (Abutilon theophrasti); details: for Velvetleaf plant response rating (0 to 100 scale): 62 g ai/ha, postemergence, 0 is no effect, 100 is complete control, 13 to 15 days; for Plant response rating, Velvetleaf: Postemergence, scale 0 to 100 (0 no effect, 100 complete control)
Summary of the method: as §1

[5] = test system: ragweed (common ragweed, Ambrosia elatior); details: for Ragweed plant response rating (0 to 100 scale): 62 g ai/ha, postemergence, 0 is no effect, 100 is complete control, 13 to 15 days; for Plant response rating, Ragweed: Postemergence, scale 0 to 100 (0 no effect, 100 complete control)
Summary of the method: as §1

[6] = test system: pigweed (Amaranthus retroflexus); details: for Pigweed plant response rating (0 to 100 scale): 62 g ai/ha, 0 is no effect, 13 to 15 days
Summary of the method: as §1

[7] = test system: corn (Zea mays); details: for Corn plant response rating (0 to 100 scale): 62 g ai/ha, 0 is no effect, 13 to 15 days
Summary of the method: as §1

[8] = test system: yellow nutsedge (Cyperus esculentus); details: for Nutsedge, Yellow plant response rating (0 to 100 scale): 62 g ai/ha, 0 is no effect, 13 to 15 days
Summary of the method: as §1

[9] = test system: green foxtail (Setaria viridis); details: for Foxtail, Green plant response rating (0 to 100 scale): 62 g ai/ha, 0 is no effect, 13 to 15 days
Summary of the method: as §1

[10] = test system: lambsquarters (Chenopodium album); details: for Lambsquarters plant response rating (0 to 100 scale): 62 g ai/ha, 0 is no effect, 13 to 15 days
Summary of the method: as §1

[11] = test system: downy bromegrass (Bromus tectorum); details: for Bromegrass, Downy plant response rating (0 to 100 scale): 62 g ai/ha, 0 is no effect, 13 to 15 days
Summary of the method: as §1

[12] = test system: large crabgrass (Digitaria sanguinalis); details: for Crabgrass, Large plant response rating (0 to 100 scale): 62 g ai/ha, 0 is no effect, 13 to 15 days
Summary of the method: as §1

[13] = test system: bermudagrass (Cynodon dactylon); details: for Bermudagrass plant response rating (0 to 100 scale): 62 g ai/ha, 0 is no effect, 13 to 15 days
Summary of the method: as §1

[14] = test system: Italian ryegrass (Lolium multiflorum); details: for Ryegrass, Italian plant response rating (0 to 100 scale): 62 g ai/ha, postemergence, 0 is no effect, 100 is complete control, 13 to 15 days; for Plant response rating, Ryegrass, Italian: Postemergence, scale 0 to 100 (0 no effect, 100 complete control)
Summary of the method: as §1

[15] = test system: cocklebur (Xanthium strumarium); details: for Cocklebur plant response rating (0 to 100 scale): 62 g ai/ha, 0 is no effect, 13 to 15 days
Summary of the method: as §1

[16] = test system: kochia (Kochia scoparia); details: for Kochia plant response rating (0 to 100 scale): 62 g ai/ha, 0 is no effect, 13 to 15 days
Summary of the method: as §1

[17] = test system: blackgrass (Alopecurus myosuroides); details: for Blackgrass plant response rating (0 to 100 scale): 62 g ai/ha, 0 is no effect, 13 to 15 days
Summary of the method: as §1

[18] = 31 g ai/ha, postemergence, scale 0 to 100, 0 is no effect, 100 is complete control
[19] = postemergence, 100 is complete control
[20] = Postemergence, 125 g ai/ha, scale 0 to 100 (0 no effect, 100 complete control)
[21] = Postemergence, 250 g ai/ha, scale 0 to 100 (0 no effect, 100 complete control)

For `O=C1CCCC(O)=C1C(=O)c1cnc(-c2ccsc2)n(C2CCCCC2)c1=O` [Compound 99], the “Soybean plant response rating (0 to 100 scale)” value [1] was 100, the “Plant response rating, Soybean” value ([1]; 125 g ai/ha) was 100 and the “Plant response rating, Soybean” value ([1]; 250 g ai/ha) was 100. For the same molecule, the “Plant response rating, Oat, Wild” value [2, 18] was 10, the “Oat, Wild plant response rating (0 to 100 scale)” value [2, 19] was 20 and the “Plant response rating, Oat, Wild” value [2, 20] was 40. For the same molecule, the “Plant response rating, Oat, Wild” value [2, 21] was 80, the “Surinam Grass plant response rating (0 to 100 scale)” value [3] was 70 and the “Plant response rating, Surinam Grass” value ([3]; 125 g ai/ha) was 75. For the same molecule, the “Plant response rating, Surinam Grass” value ([3]; 250 g ai/ha) was 80, the “Velvetleaf plant response rating (0 to 100 scale)” value [4] was 100 and the “Plant response rating, Velvetleaf” value ([4]; 125 g ai/ha) was 100. The “Plant response rating, Velvetleaf” value ([4]; 250 g ai/ha) was 100, the “Ragweed plant response rating (0 to 100 scale)” value [5] was 80 and the “Plant response rating, Ragweed” value ([5]; 125 g ai/ha) was 80. For the same molecule, the “Plant response rating, Ragweed” value ([5]; 250 g ai/ha) was 95, the “Plant response rating, Pigweed” value [6, 18] was 100 and the “Pigweed plant response rating (0 to 100 scale)” value [6, 19] was 100. The “Plant response rating, Pigweed” value [6, 20] was 100, the “Plant response rating, Pigweed” value [6, 21] was 100 and the “Plant response rating, Corn” value [7, 18] was 40. For the same molecule, the “Corn plant response rating (0 to 100 scale)” value [7, 19] was 65, the “Plant response rating, Corn” value [7, 20] was 65 and the “Plant response rating, Corn” value [7, 21] was 80. For the same molecule, the “Plant response rating, Nutsedge, Yellow” value [8, 18] was 45, the “Nutsedge, Yellow plant response rating (0 to 100 scale)” value [8, 19] was 70 and the “Plant response rating, Nutsedge, Yellow” value [8, 20] was 70. For the same molecule, the “Plant response rating, Nutsedge, Yellow” value [8, 21] was 75, the “Plant response rating, Foxtail, Green” value [9, 18] was 50 and the “Foxtail, Green plant response rating (0 to 100 scale)” value [9, 19] was 90. For the same molecule, the “Plant response rating, Foxtail, Green” value [9, 20] was 95, the “Plant response rating, Foxtail, Green” value [9, 21] was 98 and the “Plant response rating, Lambsquarters” value [10, 18] was 98. The “Lambsquarters plant response rating (0 to 100 scale)” value [10, 19] was 100, the “Plant response rating, Lambsquarters” value [10, 20] was 100 and the “Plant response rating, Lambsquarters” value [10, 21] was 100. The “Plant response rating, Bromegrass, Downy” value [11, 18] was 5, the “Bromegrass, Downy plant response rating (0 to 100 scale)” value [11, 19] was 5 and the “Plant response rating, Bromegrass, Downy” value [11, 20] was 25. For the same molecule, the “Plant response rating, Bromegrass, Downy” value [11, 21] was 25, the “Plant response rating, Crabgrass, Large” value [12, 18] was 85 and the “Crabgrass, Large plant response rating (0 to 100 scale)” value [12, 19] was 85. The “Plant response rating, Crabgrass, Large” value [12, 20] was 95, the “Plant response rating, Crabgrass, Large” value [12, 21] was 95 and the “Plant response rating, Bermudagrass” value [13, 18] was 75. The “Bermudagrass plant response rating (0 to 100 scale)” value [13, 19] was 75, the “Plant response rating, Bermudagrass” value [13, 20] was 80 and the “Plant response rating, Bermudagrass” value [13, 21] was 98. The “Ryegrass, Italian plant response rating (0 to 100 scale)” value [14] was 0, the “Plant response rating, Ryegrass, Italian” value ([14]; 125 g ai/ha) was 20 and the “Plant response rating, Ryegrass, Italian” value ([14]; 250 g ai/ha) was 20. The “Plant response rating, Cocklebur” value [15, 18] was 95, the “Cocklebur plant response rating (0 to 100 scale)” value [15, 19] was 100 and the “Plant response rating, Cocklebur” value [15, 20] was 100. For the same molecule, the “Plant response rating, Cocklebur” value [15, 21] was 100, the “Plant response rating, Kochia” value [16, 18] was 80 and the “Kochia plant response rating (0 to 100 scale)” value [16, 19] was 80. The “Plant response rating, Kochia” value [16, 20] was 100, the “Plant response rating, Kochia” value [16, 21] was 100 and the “Plant response rating, Blackgrass” value [17, 18] was 0. The “Blackgrass plant response rating (0 to 100 scale)” value [17, 19] was 0, the “Plant response rating, Blackgrass” value [17, 20] was 5 and the “Plant response rating, Blackgrass” value [17, 21] was 15.

`CCCn1c(-c2cccc(OC)c2)ncc(C(=O)C2=C(O)CCCC2=O)c1=O` [Compound 100] was tested, and the “Soybean plant response rating (0 to 100 scale)” value [1] was 98, the “Plant response rating, Soybean” value ([1]; 125 g ai/ha) was 100 and the “Plant response rating, Soybean” value ([1]; 250 g ai/ha) was 100. For the same molecule, the “Plant response rating, Oat, Wild” value [2, 18] was 0, the “Oat, Wild plant response rating (0 to 100 scale)” value [2, 19] was 10 and the “Plant response rating, Oat, Wild” value [2, 20] was 30. The “Plant response rating, Oat, Wild” value [2, 21] was 30, the “Surinam Grass plant response rating (0 to 100 scale)” value [3] was 65 and the “Plant response rating, Surinam Grass” value ([3]; 125 g ai/ha) was 65. The “Plant response rating, Surinam Grass” value ([3]; 250 g ai/ha) was 75, the “Velvetleaf plant response rating (0 to 100 scale)” value [4] was 70 and the “Plant response rating, Velvetleaf” value ([4]; 125 g ai/ha) was 70. For the same molecule, the “Plant response rating, Velvetleaf” value ([4]; 250 g ai/ha) was 85, the “Ragweed plant response rating (0 to 100 scale)” value [5] was 70 and the “Plant response rating, Ragweed” value ([5]; 125 g ai/ha) was 75. The “Plant response rating, Ragweed” value ([5]; 250 g ai/ha) was 80, the “Plant response rating, Pigweed” value [6, 18] was 90 and the “Pigweed plant response rating (0 to 100 scale)” value [6, 19] was 98. For the same molecule, the “Plant response rating, Pigweed” value [6, 20] was 98, the “Plant response rating, Pigweed” value [6, 21] was 98 and the “Plant response rating, Corn” value [7, 18] was 0. For the same molecule, the “Corn plant response rating (0 to 100 scale)” value [7, 19] was 10, the “Plant response rating, Corn” value [7, 20] was 20 and the “Plant response rating, Corn” value [7, 21] was 45. The “Nutsedge, Yellow plant response rating (0 to 100 scale)” value [8, 19] was 5, the “Plant response rating, Nutsedge, Yellow” value [8, 20] was 15 and the “Plant response rating, Nutsedge, Yellow” value [8, 21] was 40. For the same molecule, the “Plant response rating, Foxtail, Green” value [9, 18] was 20, the “Foxtail, Green plant response rating (0 to 100 scale)” value [9, 19] was 70 and the “Plant response rating, Foxtail, Green” value [9, 20] was 80. The “Plant response rating, Foxtail, Green” value [9, 21] was 85, the “Plant response rating, Lambsquarters” value [10, 18] was 95 and the “Lambsquarters plant response rating (0 to 100 scale)” value [10, 19] was 98. The “Plant response rating, Lambsquarters” value [10, 20] was 98, the “Plant response rating, Lambsquarters” value [10, 21] was 98 and the “Plant response rating, Bromegrass, Downy” value [11, 18] was 5. The “Bromegrass, Downy plant response rating (0 to 100 scale)” value [11, 19] was 10, the “Plant response rating, Bromegrass, Downy” value [11, 20] was 15 and the “Plant response rating, Bromegrass, Downy” value [11, 21] was 35. The “Plant response rating, Crabgrass, Large” value [12, 18] was 55, the “Crabgrass, Large plant response rating (0 to 100 scale)” value [12, 19] was 60 and the “Plant response rating, Crabgrass, Large” value [12, 20] was 75. For the same molecule, the “Plant response rating, Crabgrass, Large” value [12, 21] was 80, the “Plant response rating, Bermudagrass” value [13, 18] was 70 and the “Bermudagrass plant response rating (0 to 100 scale)” value [13, 19] was 70. The “Plant response rating, Bermudagrass” value [13, 20] was 75, the “Plant response rating, Bermudagrass” value [13, 21] was 85 and the “Ryegrass, Italian plant response rating (0 to 100 scale)” value [14] was 5. The “Plant response rating, Ryegrass, Italian” value ([14]; 125 g ai/ha) was 10, the “Plant response rating, Ryegrass, Italian” value ([14]; 250 g ai/ha) was 50 and the “Plant response rating, Cocklebur” value [15, 18] was 40. For the same molecule, the “Cocklebur plant response rating (0 to 100 scale)” value [15, 19] was 85, the “Plant response rating, Cocklebur” value [15, 20] was 95 and the “Plant response rating, Cocklebur” value [15, 21] was 98. For the same molecule, the “Kochia plant response rating (0 to 100 scale)” value [16, 19] was 95, the “Plant response rating, Kochia” value [16, 20] was 98 and the “Plant response rating, Kochia” value [16, 21] was 100. For the same molecule, the “Plant response rating, Blackgrass” value [17, 18] was 0, the “Blackgrass plant response rating (0 to 100 scale)” value [17, 19] was 5 and the “Plant response rating, Blackgrass” value [17, 20] was 10. For the same molecule, the “Plant response rating, Blackgrass” value [17, 21] was 40.
